Data set [1] addresses T1, Thyroid hormone receptor beta (Homo sapiens, UniProt P10828).
T1 sequence (P10828 whole entry): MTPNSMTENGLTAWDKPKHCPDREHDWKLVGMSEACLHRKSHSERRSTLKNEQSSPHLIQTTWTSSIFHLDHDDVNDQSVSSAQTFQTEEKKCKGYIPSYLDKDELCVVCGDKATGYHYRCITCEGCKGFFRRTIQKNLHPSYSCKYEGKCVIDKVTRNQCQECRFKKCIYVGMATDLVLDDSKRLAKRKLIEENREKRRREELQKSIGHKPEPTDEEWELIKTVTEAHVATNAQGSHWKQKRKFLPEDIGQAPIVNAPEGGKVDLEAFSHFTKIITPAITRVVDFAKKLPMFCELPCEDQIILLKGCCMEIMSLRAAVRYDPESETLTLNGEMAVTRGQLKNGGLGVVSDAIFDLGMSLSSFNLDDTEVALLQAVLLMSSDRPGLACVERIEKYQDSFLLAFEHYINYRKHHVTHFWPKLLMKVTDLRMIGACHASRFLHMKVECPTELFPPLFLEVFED
Description: Antagonist activity at CMV-fused TRbeta-LBD-GAL4-DBD (unknown origin) expressed in HEK293T cells assessed as inhibition of T3-induced receptor transactivation after 16 hrs by bright-Glo luciferase reporter gene assay. It is filed as cell-based. For orientation: A reporter such as luciferase makes a cellular process visible.

Data set [2] addresses Estrogen receptor beta (Homo sapiens, UniProt Q92731). The data set can be described thus: Antagonist activity at CMV-fused ERbeta-LBD-GAL4-DBD (unknown origin) expressed in HEK293T cells assessed as inhibition of estradiol-induced receptor transactivation after 16 hrs by bright-Glo luciferase reporter gene assay. The data set is classed as cell-based.
For data set [3], the target named is T2, Vitamin D3 receptor (Homo sapiens, UniProt P11473).
T2 sequence (P11473 whole entry): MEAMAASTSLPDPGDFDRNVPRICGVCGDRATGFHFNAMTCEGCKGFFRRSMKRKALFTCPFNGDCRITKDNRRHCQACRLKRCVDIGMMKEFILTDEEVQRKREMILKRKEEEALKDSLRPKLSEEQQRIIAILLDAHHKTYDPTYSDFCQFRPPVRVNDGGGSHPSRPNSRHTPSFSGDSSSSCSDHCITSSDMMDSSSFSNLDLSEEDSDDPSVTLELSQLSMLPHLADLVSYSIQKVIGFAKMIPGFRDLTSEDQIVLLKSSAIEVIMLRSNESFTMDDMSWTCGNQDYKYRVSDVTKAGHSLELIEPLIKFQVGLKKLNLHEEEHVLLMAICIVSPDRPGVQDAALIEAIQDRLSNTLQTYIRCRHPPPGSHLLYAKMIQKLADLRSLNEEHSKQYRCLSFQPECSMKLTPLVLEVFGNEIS
Description: Antagonist activity at CMV-fused VDR (unknown origin) expressed in HEK293T cells assessed as reduction in 24-hydroxylase promoter mediated transcriptional activity by luciferase reporter gene assay. It is filed as cell-based. The following applies: read-out: IC50.

Data set [4] has as its target T3, Peroxisome proliferator-activated receptor alpha (Homo sapiens, UniProt Q07869).
T3 sequence (Q07869 whole entry): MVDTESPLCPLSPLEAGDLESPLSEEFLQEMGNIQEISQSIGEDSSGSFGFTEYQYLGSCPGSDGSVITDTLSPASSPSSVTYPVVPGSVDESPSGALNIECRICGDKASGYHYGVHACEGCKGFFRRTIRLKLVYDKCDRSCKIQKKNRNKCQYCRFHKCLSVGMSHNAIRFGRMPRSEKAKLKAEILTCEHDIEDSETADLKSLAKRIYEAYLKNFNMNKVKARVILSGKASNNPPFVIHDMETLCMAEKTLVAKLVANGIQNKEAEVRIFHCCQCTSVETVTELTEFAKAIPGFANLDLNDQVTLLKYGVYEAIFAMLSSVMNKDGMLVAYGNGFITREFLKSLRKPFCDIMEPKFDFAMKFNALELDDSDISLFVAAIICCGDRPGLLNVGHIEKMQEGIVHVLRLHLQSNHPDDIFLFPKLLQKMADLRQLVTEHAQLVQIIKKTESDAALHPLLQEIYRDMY
The data set can be described thus: Antagonist activity at CMV-fused PPARalpha-LBD-GAL4-DBD (unknown origin) expressed in HEK293T cells assessed as inhibition of GW7647-induced receptor transactivation after 16 hrs by bright-Glo luciferase reporter gene assay. The data set is classed as cell-based.

The target of data set [5] is T4, Peroxisome proliferator-activated receptor gamma (Homo sapiens, UniProt P37231).
T4 sequence (P37231 whole entry): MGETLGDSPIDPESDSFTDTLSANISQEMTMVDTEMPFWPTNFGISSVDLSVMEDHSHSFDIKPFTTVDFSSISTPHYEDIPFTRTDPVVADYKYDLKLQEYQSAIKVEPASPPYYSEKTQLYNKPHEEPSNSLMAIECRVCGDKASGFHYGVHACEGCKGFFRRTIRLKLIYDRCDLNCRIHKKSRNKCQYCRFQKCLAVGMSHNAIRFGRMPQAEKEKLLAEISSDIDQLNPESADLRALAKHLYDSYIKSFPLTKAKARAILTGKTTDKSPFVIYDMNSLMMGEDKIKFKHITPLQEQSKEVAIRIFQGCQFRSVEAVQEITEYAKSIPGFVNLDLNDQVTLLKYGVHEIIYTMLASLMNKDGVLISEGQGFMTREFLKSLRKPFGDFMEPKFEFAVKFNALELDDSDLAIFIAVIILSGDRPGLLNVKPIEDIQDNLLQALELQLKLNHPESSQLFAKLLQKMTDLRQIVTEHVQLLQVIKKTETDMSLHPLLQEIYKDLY
The data set can be described thus: Antagonist activity at CMV-fused PPARgamma-LBD-GAL4-DBD (unknown origin) expressed in HEK293T cells assessed as inhibition of rosiglitazone-induced receptor transactivation after 16 hrs by bright-Glo luciferase reporter gene assay. The data set is classed as cell-based.

Data set [6] in a line: Aqueous solubility of the compound in DMSO at 500 uM by filter based assay. It is filed as physicochemical.
Data set [7] concerns HEK-293T. The data set can be described thus: Cytotoxicity against HEK293T cells assessed as decrease in cell viability at 100 uM after 18 hrs by Cell Titer-Glo based luminescence assay relative to control. The following applies: human. (ATP-based viability assays read luminescence as a measure of living cells.)
Data set [8] addresses T2, Vitamin D3 receptor. Description: Antagonist activity at VDR-LBD (unknown origin) assessed as inhibition of LG190178-induced recruitment of alexa fluor 647-labeled SRC2-3 after 30 mins by fluorescence polarization assay.

≈ marks a conversion by molar mass, not a printed value.

Estrogen receptor beta, sequence (Q92731 whole entry, the tested form may be a part): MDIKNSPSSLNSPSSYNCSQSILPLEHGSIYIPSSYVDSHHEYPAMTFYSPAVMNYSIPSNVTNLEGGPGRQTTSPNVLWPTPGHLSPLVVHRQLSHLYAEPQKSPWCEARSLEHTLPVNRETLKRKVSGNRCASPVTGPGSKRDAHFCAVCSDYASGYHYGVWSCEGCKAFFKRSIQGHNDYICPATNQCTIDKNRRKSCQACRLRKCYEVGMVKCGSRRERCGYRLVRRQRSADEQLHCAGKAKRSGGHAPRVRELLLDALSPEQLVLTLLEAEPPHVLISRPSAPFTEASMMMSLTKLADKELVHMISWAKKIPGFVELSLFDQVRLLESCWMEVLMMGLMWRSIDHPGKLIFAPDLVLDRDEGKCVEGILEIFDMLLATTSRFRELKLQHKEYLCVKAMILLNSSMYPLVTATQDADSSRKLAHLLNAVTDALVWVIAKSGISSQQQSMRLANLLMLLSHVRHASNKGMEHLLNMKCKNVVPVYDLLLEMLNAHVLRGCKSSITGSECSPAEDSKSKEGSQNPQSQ

As to `COC(=O)c1ccc(OCc2oc(-c3cccc(OC)c3)nc2C)cc1`, the IC50 in data set [1] is 8.8 µM; in data set [2], 5.9 µM; in data set [3], 5.67 µM; in data set [4] it was 3.5 µM; in data set [5], 7.6 µM; in data set [8] it was “Not Active”. Moreover, in data set [6], the solubility (kinetic) at 500 µM is 18.5 µM (≈ 6.54 µg/mL). Besides, in data set [7], the Activity is listed as 35.6%.

In the case of `COC(=O)c1cccc(OCc2oc(-c3ccccc3OC)nc2C)c1`, the IC50 in data set [1] is 9.8 µM; in data set [2], 23.6 µM; in data set [3], 2.5 µM; in data set [4], 6.6 µM; in data set [5], 7.6 µM; in data set [8], “Not Active”. This compound also showed a solubility (kinetic) at 500 µM in data set [6] of 44.1 µM (≈ 15.6 µg/mL). In addition, in data set [7], the Activity was determined as 39.5%.

As for `COC(=O)Cc1ccc(OCc2oc(-c3cccc(OC)c3)nc2C)cc1`, the IC50 in data set [1] was 0.97 µM; in data set [2] it was 7.4 µM; in data set [3], 0.66 µM; in data set [4], 1.9 µM; in data set [5] it was 6.7 µM; in data set [8], “Not Active”. In data set [6], this compound came in with a solubility (kinetic) at 500 µM of 45.3 µM (≈ 16.6 µg/mL). Besides, in data set [7], the Activity worked out at 63.4%.

Take `COC(=O)Cc1ccc(OCc2oc(-c3ccccc3OC)nc2C)cc1`: the IC50 is 7.6 µM in data set [1]; 10 µM in data set [2]; 3.82 µM in data set [3]; 8 µM in data set [4]; 6.3 µM in data set [5]; “Not Active” in data set [8]. For the same compound, the solubility (kinetic) at 500 µM in data set [6] is 61.6 µM (≈ 22.6 µg/mL). Also, the Activity in data set [7] came out at 31.2%.

What is called IC50 is the point on the concentration scale where inhibition reaches its midpoint. The term kinetic solubility denotes solubility judged after dilution from a stock solution rather than from solid.

(Values after ChEMBL document CHEMBL4184110 (Bioorg Med Chem Lett, 2018).)
